From patent US20110224256A1, “T[…] THE TREATMENT OF PSYCHIATRIC DISORDERS” (priority 2008, published 2011)
Entries after “also recorded” stand apart in the source; their conditions may differ.

Key:
Sprague-Dawley male rats [1] = assay: Place conditioning to 10 mg/kg cocaine at P60 after juvenile drug exposure; assay type: in vivo; conditions: for place conditioning to cocaine-associated environment (pre- vs. post-conditioning): tested at P60, 10 mg/kg cocaine
Method: Juvenile Sprague-Dawley male rats were treated with MPH (2 mg/kg, i.p. twice daily), ±7-OHDPAT (0.3 mg/kg, i.p. twice daily), Naf (0.05, 0.5 and 5 mg/kg; i.p. twice daily) or VEH (i.p. twice daily) between the ages of P20 and P35 (Andersen et al., Nat. Neurosci., 5:13-14 (2002)). The MPH dose was selected on the basis of previous studies (see Andersen et al., Nat. Neurosci., 5:13-14 (2002); Bolanos et al., Biol. Psychiatry, 54:1317-1329 (2003); and Mague et al., Biol. Psychiatry, 57:120-125 (2005)), unpublished observations that we find similar behavioral effects if MPH is given i.p. or orally at this dose, and evidence that it approximates a clinically relevant dose in humans based on plasma levels (see Wargin et al., J. Pharmacol. Exp. Ther., 226:382-386 (1983); and Kuczenski, R. & Segal, D. S. J. Neurosci., 22:7264-7271 (2002)). Clinically therapeutic doses of MPH yield plasma levels between 8 and 40 ng/mL (Swanson et al., Behay. Brain Res., 130:73-78 (2002); Teicher et al., Ann. N. Y. Acad. Sci., 1071:313-323 (2006)), with 0.5 mg/kg i.p., achieving plasma levels of 36 ng/mL within 5 min in rats (Berridge et al., Biol. Psychiatry, 60:1111-1120 (2006)). Doses for juvenile exposure to ±7-OHDPAT are based on Neisewander et al., Neuropsychopharmacology, 29:1479-1487 (2004), and cortical microinjections of 10 µg/side were derived from Boulay et al. Prog. Neuropsychopharmacol. Biol. Psychiatry, 24:39-49 (2000). Naf doses below 1 mg/kg have negligible D2 receptor occupancy (Sautel et al., J. Pharmacol. Exp. Ther., 275:1239-1246 (1995)) and are behaviorally effective (Richtand et al., Brain Res., 867:239-242 (2000)). Subjects were weighed daily at 09.00 h and injected with their assigned drug; the second injection was administered 4 h later at 13.00 h. This regimen is designed to match the twice-daily dosing used by children, taking into account the higher metabolic rates of rats (Wargin et al., J. Pharmacol. Exp. Ther., 226:382-386 (1983)). After the second drug administration on P35, the rats received no further treatments until behavioral testing at P60.
Rats treated between P20 and P35 with either Naf (0, 0.05, 0.5 or 5.0 mg/kg; n=7-9), ±7-OHDPAT (0.3 mg/kg; n=9), MPH (2 mg/kg; n=9), or a combination of 2 mg/kg MPH and 0.05 mg/kg Naf (MPH/Naf; n=8) were tested at P60 for place conditioning to 10 mg/kg cocaine. According to standard laboratory methods (Andersen et al., Nat. Neurosci., 5:13-14 (2002); Carlezon, Methods Mol. Med., 84:243-249 (2003)), unbiased place conditioning chambers consisted of two large (24×18×33) side compartments separated by a small (12×18×33 cm) middle compartment. Screening was conducted for 30 min on Day 1. Rats were placed in the middle compartment and allowed to freely explore the apparatus. […] Two days of conditioning (with two sessions per day) occurred on Days 2 and 3 for 60 min (Andersen et al., Nat. Neurosci., 5:13-14 (2002); Carlezon, Methods Mol. Med., 84:243-249 (2003)). During the conditioning sessions, rats received a 1 mL/kg i.p. injection of VEH in the morning (09.00 h) and confined to one side. The rats were then returned to the home cage. Four hours later, rats received 10 mg/kg cocaine and confined to the other side. Sides differed in floor texture, wall colors and lighting, and assignments were counterbalanced. On Day 4, rats were permitted to freely explore the entire apparatus for 30 min in a drug-free state.

Sprague-Dawley male rats [2] = assay: Locomotor activity at 60 days old after juvenile ±7-OHDPAT exposure; assay type: in vivo; conditions: juvenile ±7-OHDPAT 0.3 mg/kg P20-P35, vs VEH
Method: FIG. 6. Locomotor activity in response to a 10 mg/kg challenge with cocaine on the second day of cocaine conditioning in VEH- and ±7-OHDPAT-treated subjects (n=7-8 animals per group). *P<0.05 comparing the 10 mg/kg cocaine groups.
Juvenile Sprague-Dawley male rats were treated with MPH (2 mg/kg, i.p. twice daily), ±7-OHDPAT (0.3 mg/kg, i.p. twice daily), Naf (0.05, 0.5 and 5 mg/kg; i.p. twice daily) or VEH (i.p. twice daily) between the ages of P20 and P35 (Andersen et al., Nat. Neurosci., 5:13-14 (2002)). […]
To further investigate the functional role of the D3 receptor in juvenile psychostimulant treatment, animals were pre-pubertally treated with the D3-preferring agonist ±7-OHDPAT, the D3 antagonist Naf or a MPH/Naf combination. […] Next, juvenile manipulations of the D3 receptor on place conditioning were assessed and compared with each other. […]

Sprague-Dawley male rats [3] = assay: Place conditioning to 10 mg/kg cocaine at P60 after juvenile drug exposure; assay type: in vivo; conditions: 10 µg/side into MPFCx during conditioning
[4] = test system: mature and immature animals; conditions: cited from earlier work
D2 receptor = conditions: Naf doses below 1 mg/kg; cited from earlier work

Structure (SMILES)	place conditioning to 10 mg/kg cocaine associated environment (pre- vs. post-conditioning) (Sprague-Dawley male rats [1]; juvenile exposure P20-P35: MPH 2 mg/kg, ±7-OHDPAT 0.3 mg/kg, or MPH 2 mg/kg + Naf 0.05 mg/kg, tested at P60)	baseline locomotor activity (Sprague-Dawley male rats [2]; 60 days old, P>0.9)	locomotor response to 10 mg/kg cocaine challenge (Sprague-Dawley male rats [2]; second day of cocaine conditioning, P<0.05)	place conditioning to cocaine after ±7-OHDPAT microinjection into the MPFCx (Sprague-Dawley male rats [3]; MPH-exposed subjects)	place conditioning to cocaine after ±7-OHDPAT microinjection into the MPFCx (Sprague-Dawley male rats [3]; MPH-exposed subjects, listed as ±7 OHDPAT)	place conditioning to cocaine after ±7-OHDPAT microinjection into the MPFCx (Sprague-Dawley male rats [3]; VEH-exposed subjects)	place conditioning to cocaine after ±7-OHDPAT microinjection into the MPFCx (Sprague-Dawley male rats [3]; VEH-exposed subjects, listed as ±7 OHDPAT)	locomotor activity [4]	place conditioning to cocaine-associated environment (pre- vs. post-conditioning) (Sprague-Dawley male rats [1]; juvenile Naf 0.05 mg/kg i.p. twice daily P20-P35)	place conditioning to cocaine-associated environment (pre- vs. post-conditioning) (Sprague-Dawley male rats [1]; juvenile Naf 0.5 mg/kg i.p. twice daily P20-P35)	place conditioning to cocaine-associated environment (pre- vs. post-conditioning) (Sprague-Dawley male rats [1]; juvenile Naf 5.0 mg/kg i.p. twice daily P20-P35)	D2 receptor occupancy (D2 receptor)
CCCN(CCC)C1CCc2ccc(O)cc2C1 (racemic) [±7-OHDPAT, ±7-hydroxy-N,N-di-n-propyl-2-aminotetralin]	Place aversion; also recorded: aversion to the cocaine-associated environment	did not differ from VEH control animals	significantly reduced	reversing the aversion to cocaine; also recorded: produced a place preference to cocaine	significant preference for cocaine-associated environments	no greater effect	significant preference for cocaine-associated environments	inhibit locomotor activity				
CCCCN1CCCC1CNC(=O)c1cc(C#N)c2ccccc2c1OC (stereo not shown) [Naf, Nafadotride]									significant preference	significant preference	did not form such a preference	negligible
CCCN1CCO[C@@H]2c3cc(O)ccc3OC[C@H]21 [PD 128907]								inhibit locomotor activity				
